Several values for one entry are separate records, joined by “and”; a condition that tells them apart may be missing. Identical values can stand only once. Marks after values point to notes of the source that are not given here.
Assays:
[1] = Safety: adverse events graded by CTCAE v4.0; format: in vivo, human; conditions: with paclitaxel and carboplatin
[2] = ECG monitoring during cycle 1; format: in vivo, human; conditions: 10 patients, cycle 1, before and after dosing on days 1 and 17
stage II-III TNBC = test: Clinico-pathological response to neoadjuvant treatment; format: in vivo, human
[3] = RO4929097 plasma pharmacokinetics; format: in vivo, human; conditions: for AUC(0-inf) / Cmax / half-life / Vd/F: human, plasma, oral; for Vd/F: Vz/F
[4] = Phase I 3 + 3 dose escalation: DLT and MTD; conditions: human, in vivo
[5] = 20 mg dose, Cycle 1 Day 15, N = 3, mean ± SD
[6] = 10 mg, 10 mg dose, Cycle 1 Day 1, N = 8, mean ± SD
[7] = 10 mg, 10 mg dose, Cycle 1 Day 15, N = 7, mean ± SD
[8] = 10 mg, 10 mg dose, Cycle 1 Day 17, N = 6, mean ± SD
[9] = 20 mg, 20 mg dose, Cycle 1 Day 1, N = 4, mean ± SD
[10] = 20 mg, 20 mg dose, Cycle 1 Day 15, N = 3, mean ± SD
[11] = 20 mg, 20 mg dose, Cycle 1 Day 17, N = 2, mean ± SD

CC(C)(C(=O)NCC(F)(F)C(F)(F)F)C(=O)N[C@@H]1C(=O)Nc2ccccc2-c2ccccc21 [RO4929097]
Lymphocytopenia, Grade 1 ([1]; treatment-related AE, N = 14): 5 (36) N (%) | Lymphocytopenia, Grade 2 ([1]; treatment-related AE, N = 14): 5 (36) N (%) | Lymphocytopenia, Grade 3 ([1]; treatment-related AE, N = 14): 2 (14) N (%) | Lymphocytopenia, Grade 4 ([1]; treatment-related AE, N = 14): 0 (0) N (%) | Nausea, All Grades ([1]; treatment-related AE, N = 14): 12 (86) N (%) | Nausea, Grade 1 ([1]; treatment-related AE, N = 14): 9 (64) N (%) | Nausea, Grade 2 ([1]; treatment-related AE, N = 14): 3 (21) N (%) | Nausea, Grade 3 ([1]; treatment-related AE, N = 14): 0 (0) N (%) | Nausea, Grade 4 ([1]; treatment-related AE, N = 14): 0 (0) N (%) | Neutropenia, All Grades ([1]; treatment-related AE, N = 14): 11 (79) N (%) | Neutropenia, Grade 1 ([1]; treatment-related AE, N = 14): 0 (0) N (%) | Neutropenia, Grade 2 ([1]; treatment-related AE, N = 14): 3 (21) N (%) | Neutropenia, Grade 3 ([1]; treatment-related AE, N = 14): 6 (43%) N (%) and 6 (43) N (%) | Neutropenia, Grade 4 ([1]; treatment-related AE, N = 14): 2 (14%) N (%) and 2 (14) N (%) | Peripheral sensory neuropathy, All Grades ([1]; treatment-related AE, N = 14): 12 (86) N (%) | Peripheral sensory neuropathy, Grade 1 ([1]; treatment-related AE, N = 14): 6 (43) N (%) | Peripheral sensory neuropathy, Grade 2 ([1]; treatment-related AE, N = 14): 4 (29) N (%) | Peripheral sensory neuropathy, Grade 3 ([1]; treatment-related AE, N = 14): 2 (14%) N (%) and 2 (14) N (%) | Peripheral sensory neuropathy, Grade 4 ([1]; treatment-related AE, N = 14): 0 (0) N (%) | Rash maculo-papular, All Grades ([1]; treatment-related AE, N = 14): 10 (71) N (%) | Rash maculo-papular, Grade 1 ([1]; treatment-related AE, N = 14): 7 (50) N (%) | Rash maculo-papular, Grade 2 ([1]; treatment-related AE, N = 14): 3 (21) N (%) | Rash maculo-papular, Grade 3 ([1]; treatment-related AE, N = 14): 0 (0) N (%) | Rash maculo-papular, Grade 4 ([1]; treatment-related AE, N = 14): 0 (0) N (%) | Thrombocytopenia, All Grades ([1]; treatment-related AE, N = 14): 11 (79) N (%) | Thrombocytopenia, Grade 1 ([1]; treatment-related AE, N = 14): 4 (29) N (%) | Thrombocytopenia, Grade 2 ([1]; treatment-related AE, N = 14): 2 (14) N (%) | Thrombocytopenia, Grade 3 ([1]; treatment-related AE, N = 14): 4 (29%) N (%) and 4 (29) N (%) | Thrombocytopenia, Grade 4 ([1]; treatment-related AE, N = 14): 1 (7%) N (%) and 1 (7) N (%) | Hospitalizations for neutropenic fevers or other treatment-related toxicities [1]: no hospitalizations | G3 or higher thrombocytopenia, patients ([1]; N = 5): 36% | G3 or higher neutropenia, patients ([1]; N = 8): 57% | Patients with Grade 2/Grade 3 neuropathy requiring dose reduction of paclitaxel ([1]; six patients): 43% | QTc prolongation or other clinically significant ECG changes [2]: No QTc prolongation or other clinically significant ECG changes were observed | pCR, patients (stage II-III TNBC; 5 of 14 patients, with paclitaxel and carboplatin): 36% | Patients with residual disease in the breast and lymph nodes (stage II-III TNBC; 5 patients, with paclitaxel and carboplatin): 36% | Overall response rate (stage II-III TNBC; 9 of 14 patients who completed chemotherapy (1 never received RO4929097)): 64% | Complete pathologic response (stage II-III TNBC; neoadjuvant, with paclitaxel and carboplatin, N = 14): 5 (36) N (%) | Residual disease (stage II-III TNBC; neoadjuvant, with paclitaxel and carboplatin, N = 14, one patient did not receive RO4929097): 9 (64)^a,b N (%) | CL/F ([3]; 10 mg dose, Cycle 1 Day 1, N = 8, mean ± SD): 3.21 ± 0.84 L/h | CL/F ([3]; 10 mg dose, Cycle 1 Day 15, N = 7, mean ± SD): 2.70 ± 1.07 L/h | CL/F ([3]; 10 mg dose, Cycle 1 Day 17, N = 6, mean ± SD): 1.97 ± 1.12 L/h | CL/F ([3]; 20 mg dose, Cycle 1 Day 1, N = 4, mean ± SD): 3.87 ± 1.09 L/h | CL/F [3, 5]: 3.90 ± 2.20 L/h | Half life [3, 5]: 36.0 ± 31.7 h | CL/F ([3]; 20 mg dose, Cycle 1 Day 17, N = 2, mean ± SD): 2.47 ± 2.55 L/h | Exposure on day 15 compared to day 1 ([3]; cycle 1): 125% | AUC (exposure) on day 17 compared to day 1 ([3]; cycle 1, both dose levels): 220% | Cmax on day 17 compared to day 1 ([3]; cycle 1, both dose levels): 158% | AUC(0-inf) [3, 6]: 3280 ± 749 ng·h/mL | AUC(0-inf) [3, 7]: 4120 ± 2140 ng·h/mL | AUC(0-inf) [3, 8]: 6210 ± 2610 ng·h/mL | Cmax [3, 6]: 203 ± 92.7 ng/mL | Cmax [3, 7]: 177 ± 93.6 ng/mL | Cmax [3, 8]: 259 ± 113 ng/mL | half-life [3, 6]: 14.7 ± 2.2 h | half-life [3, 7]: 20.1 ± 11.2 h | half-life [3, 8]: 20.6 ± 7 h | Vd/F [3, 7]: 76.8 ± 46.8 L | Vd/F [3, 8]: 55.6 ± 25.4 L | AUC(0-inf) [3, 9]: 5520 ± 1680 ng·h/mL | AUC(0-inf) [3, 10]: 6730 ± 4230 ng·h/mL | AUC(0-inf) [3, 11]: 17400 ng·h/mL | Cmax [3, 9]: 324 ± 116 ng/mL | Cmax [3, 10]: 234 ± 25 ng/mL | Cmax [3, 11]: 422 ± 42.6 ng/mL | half-life [3, 9]: 22.8 ± 12.4 h | half-life [3, 11]: 39.3 ± 39.9 h | Vd/F [3, 9]: 115 ± 38.6 L | Vd/F [3, 10]: 139 ± 37.5 L | Vd/F [3, 11]: 66.3 ± 2.4 L | DLTs observed, all dose levels [4]: 2
